The subject of data set [1] is A-431 cells. Briefly: Cellular uptake of Cf-labelled peptides by flow cytometry. In kind it is cell-based. The note with it: 5 µM, 90 min, 37 °C, compared with Pen(desMet). The protocol:
The cells were treated with a solution of peptides at 5 µM concentration at 37 °C for 90 min. The measured fluorescence values were corrected with the autofluorescence of the untreated cells. To determine the toxicity of the conjugates, the live/dead cell ratio was calculated.
Figure 2 Comparison of the cellular uptake of the labelled penetratin derivatives into A-431 cells. Cells were incubated with 5 µM peptide solution for 90 min at 37 °C. The fluorescence intensity of the cells was determined by flow cytometry. The fluorescence intensity is relative to Pen(desMet) at 5 µM (100%). Data represent the mean ± standard deviation (SD). Any significant difference to the control was measured using the Student’s t test.

The subject of data set [2] is A-431 cells. Kind of data set: Cellular uptake after pretreatment with endocytosis inhibitors or ATP depletion, flow cytometry. The conditions noted are these: then peptide 5 µM 90 min; for Cellular uptake with NaN3 and DOG, % of the untreated control: NaN3 500 µM and 2-deoxyglucose 250 mM pretreatment 30 min (ATP depletion), mean. A general note: A flow cytometer gives signals particle by particle.
Protocol: The cells were incubated for 24 h at 37 °C. The cells were treated with a serum-free medium as a negative control and with peptide solutions in 5 µM concentration in a serum-free medium for 90 min. After the incubation, the cells were washed, and 100 µL of trypsin was applied for 10 min to eliminate peptides adhered to the membrane and to detach the cells from the plates. Trypsin activity was stopped by adding 800 µL of HPMI buffer (glucose, NaHCO3, NaCl, HEPES, KCl, MgCl2, CaCl2, Na2HPO4·2H2O) containing 10% fetal bovine serum. Cells were then transferred from the plates to FACS tubes. Centrifugation of the cells took place at 216× g at 4 °C for 5 min, and the supernatant was removed. Resuspension of the cells was performed by 250 µL HPMI, followed by fluorescence intensity measurements using a flow cytometer (BDLSR II, BD Bioscience, San Jose, CA, USA). The analysis of the data was performed using FACSDiVa 5.0 software. To study the effect of inhibitors, cells were pretreated with the solution of inhibitors for 30 min, followed by the treatment with the peptide solution at 5 µM for 90 min. Inhibition of macropinocytosis was performed by using 5-(N-Ethyl-N-isopropyl)amiloride (EIPA) (500 µM) [46], of clathrin-mediated endocytosis by using chlorpromazine (CPZ) (300 µM) [47]. The caveolae/lipid raft-mediated endocytosis was prevented with methyl-β-cyclodextrin (mBCD) (36 mM) [48], and colchicine (Col) (200 mM) was employed to determine the role of microtubules and consequently, the significance of pinocytosis [49]. To inhibit all endocytosis routes, sodium azide (NaN3) (500 µM) and 2-Deoxyglucose (DOG) (250 mM) was used.
The following endocytic inhibitors were used: EIPA (5-(N-ethyl-N-isopropyl) amiloride) as an inhibitor of macropinocytosis, chlorpromazine (CPZ) as an inhibitor of a clathrin-mediated endocytosis, and the cholesterol-depleting reagent methyl-beta-cyclodextrin (mBCD) was used to inhibit the caveolae-mediated endocytosis. Finally, colchicine (COL) was applied to inhibit microtubule formation.
A-431 cells were pretreated with the EIPA (500 µM), CPZ (300 µM), mBCD (36 mM), COL (200 mM), NaN3 (500 µM), and DOG (250 mM) for 30 min, followed by treatment with peptides (5 µM) for 90 min. Any significant difference from the control was determined by Student’s t-test (* p < 0.05). Data represent the mean ± standard deviation (SD).The asterisks show a significant difference between the control Pen(desMet) and its derivatives (* p < 0.05, ** p < 0.01, *** p < 0.001).
In addition, the A-431 cells were pretreated with sodium azide (NaN3) and 2-deoxyglucose (DOG) to study the energy-independent pathways. This pretreatment results in ATP depletion and therefore the inhibition of energy-dependent pathways (Figure 3).

On to “Cf-RQIKI-azaGly-FQNRRKWKK-NH2 [Trp48aGlyPen(desMet), Cf-labelled Pen(desMet) with Trp48 replaced by aza-glycine]”, for which the “Cellular uptake (in words)” value in data set [1] is recorded as “dramatically decreased the cellular uptake”. Same read-out and setting: the entry for “Cf-RQIKIGFQNRRKWKK-NH2 [Trp48GlyPen(desMet), Cf-labelled Pen(desMet) with Trp48 replaced by glycine]” is “dramatically decreased the cellular uptake”. Regarding “Cf-RQIKIWFQNRRK-azaGly-KK-NH2 [Trp56aGlyPen(desMet)]”, in data set [2], the “Cellular uptake with NaN3 and DOG, % of the untreated control” value (from here on “Cellular uptake with NaN3 and DOG, %”) is 97%. In addition, the “Effect of azide/DOG treatment on cellular uptake (in words)” value in data set [2] (NaN3 500 µM and DOG 250 mM pretreatment 30 min) is “did not have any effect”. Regarding “Cf-RQIKIWFQNRRKGKK-NH2 [Trp56GlyPen(desMet)]”, the “Cellular uptake with NaN3 and DOG, %” value in data set [2] turned out to be 50%.

Take Cf-RQIKIWFQNRRKWKK-NH2 [Pen(desMet)]: the “Cellular uptake with NaN3 and DOG, %” value in data set [2] worked out at 79%.

Values taken from publication PMC11053488, “Influence of Aza-Glycine Substitution on the Internalization of Penetratin” (Pharmaceutics, 2024).
